“Also recorded” adds a separate entry of the source.
How the values were obtained:
mouse CB2 receptors [1] = molecular target: T1, mouse CB2 receptors (Mus musculus, UniProt P47936); assay: On-cell western for receptor internalization, HEK mCB2; type: cell-based
T1 construct: expressed in transfected cells

[2] = in vivo; cited from earlier work
mouse CB2 receptors [3] = molecular target: T1, mouse CB2 receptors; assay: Myo-inositol phosphate-1 (IP1) accumulation, HEK mCB2; type: cell-based; conditions: via mouse CB2
[4] = tested on: naloxone-precipitated opioid withdrawal; assay: Naloxone-precipitated opioid withdrawal in paclitaxel-treated mice; type: in vivo, mouse
Protocol: Alter the last injection of morphine (on day 28 for two-phase treatments, on day 13 for coadministration treatment), we challenged WT or CB2KO mice from experiments 2, 3, and 4 with vehicle, followed 30 minutes later by naloxone (5 mg/kg i.p.) to precipitate opioid receptor-mediated withdrawal. Mice were video-recorded for subsequent scoring of withdrawal-like behaviors for a 30-minute interval after challenge with vehicle or naloxone.
Mice were video-taped, and the number of jumps was scored in 5-minute intervals for a total observation period of 30 minutes after challenge with either saline or naloxone (5 mg/kg i.p.).

human CB2 [5] = molecular target: T2, human CB2 (Homo sapiens, UniProt P34972); assay: On-cell western for receptor internalization, HEK hCB2; type: cell-based; design: expressed in transfected cells
T2 sequence (P34972 whole entry): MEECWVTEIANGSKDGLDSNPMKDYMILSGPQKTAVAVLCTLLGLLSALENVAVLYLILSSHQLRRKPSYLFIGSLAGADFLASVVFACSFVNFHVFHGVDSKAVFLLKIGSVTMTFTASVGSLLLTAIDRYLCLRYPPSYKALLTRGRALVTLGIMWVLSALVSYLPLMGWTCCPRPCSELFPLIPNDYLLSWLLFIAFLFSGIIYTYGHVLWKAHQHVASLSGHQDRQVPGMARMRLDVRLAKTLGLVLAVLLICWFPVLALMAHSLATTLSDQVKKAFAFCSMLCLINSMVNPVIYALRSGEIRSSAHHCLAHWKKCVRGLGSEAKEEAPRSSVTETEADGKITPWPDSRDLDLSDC

human CB2 [6] = molecular target: T2, human CB2; conditions: at 20 nM; cited from earlier work
CB1 = CB1 (Homo sapiens, UniProt P21554); conditions: at 100 μM; cited from earlier work
CB1, sequence (P21554 whole entry, species assumed): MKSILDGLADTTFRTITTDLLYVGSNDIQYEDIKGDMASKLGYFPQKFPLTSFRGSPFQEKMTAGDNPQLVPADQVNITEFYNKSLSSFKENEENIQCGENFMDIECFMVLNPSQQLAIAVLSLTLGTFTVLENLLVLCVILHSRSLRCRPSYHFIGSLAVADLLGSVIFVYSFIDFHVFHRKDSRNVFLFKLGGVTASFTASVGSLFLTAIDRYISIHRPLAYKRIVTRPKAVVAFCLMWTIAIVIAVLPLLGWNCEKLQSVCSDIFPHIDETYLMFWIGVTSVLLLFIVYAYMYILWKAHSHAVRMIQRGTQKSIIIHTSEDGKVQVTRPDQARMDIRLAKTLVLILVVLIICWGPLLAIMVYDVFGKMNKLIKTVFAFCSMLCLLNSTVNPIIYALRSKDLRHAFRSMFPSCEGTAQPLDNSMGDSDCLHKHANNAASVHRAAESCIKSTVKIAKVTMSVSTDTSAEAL

[7] = paclitaxel-treated WT mice, naloxone 5 mg/kg i.p.

T1 sequence (P47936 whole entry): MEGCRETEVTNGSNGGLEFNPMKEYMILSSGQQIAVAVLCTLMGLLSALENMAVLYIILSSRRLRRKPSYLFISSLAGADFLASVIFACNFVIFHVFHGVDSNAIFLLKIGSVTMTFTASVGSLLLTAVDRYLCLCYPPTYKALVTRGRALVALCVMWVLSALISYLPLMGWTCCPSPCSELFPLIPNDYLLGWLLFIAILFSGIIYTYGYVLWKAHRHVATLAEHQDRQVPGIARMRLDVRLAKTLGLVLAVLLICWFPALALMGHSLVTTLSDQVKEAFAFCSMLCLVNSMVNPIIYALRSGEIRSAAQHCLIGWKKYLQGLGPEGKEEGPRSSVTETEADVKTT

Cc1nc(N2CCN(C)CC2)c2nc(-c3ccccc3Cl)n(C3CCOCC3)c2n1 [LY2828360, 8-(2-chlorophenyl)-2-methyl-6-(4-methylpiperazin-1-yl)-9-(tetrahydro-2H-pyran-4-yl)-9H-purine]
receptor internalization (mouse CB2 receptors [1]; HEK mCB2): failed to internalize the receptor; also recorded: less potent and efficacious
EC50 (mouse CB2 receptors [1]; mouse CB2, 90 mins incubation, read-out: Internalization EC50): 30.7 nM
Emax (mouse CB2 receptors [1]; mouse CB2, 90 mins incubation, read-out: Internalization Emax): 19.1%
central nervous system (CNS) penetration [2]: good
IP1 accumulation (mouse CB2 receptors [3]): did not affect IP1 accumulation
naloxone-precipitated jumps, WT compared with CB2KO mice ([4]; coadministration of LY2828360 with morphine, P=0.055): trended to produce a lower number of naloxone-precipitated jumps
number of jumps, LY (1)-Mor (2) vs Veh (1)-Mor (2) ([4]; paclitaxel-treated CB2KO mice): did not differ
number of jumps, LY (1)-Mor (2) vs Veh (1)-Veh (2) ([4]; paclitaxel-treated CB2KO mice): trended higher
number of jumps, LY (1)-Mor (2) vs Veh (1)-Mor (2) [4, 7]: did not differ
number of naloxone-precipitated jumps, LY (1)-Mor (2) vs Veh (1)-Veh (2) [4, 7]: did not differ
receptor internalization (human CB2 [5]; HEK hCB2): failed to internalize the receptor
Emax (human CB2 [5]; human CB2, 90 mins incubation, read-out: Internalization Emax): 10.2%
maximal stimulation of CB2 (human CB2 [6]): approximately 87%
maximal stimulation of CB1 (CB1): 15%
